The text below walks through data of patent US20260274892A1, “MACROCYCLIC BROAD SPECTRUM ANTIBIOTICS” (RQx Pharmaceuticals, Inc., priority 2017, published 2026).

For orientation: MIC means the lowest concentration that inhibits growth of the organism.

SMILES strings stand for the structures.

For experiment [1], the system named is Escherichia coli ATCC 25922. Description: Minimum inhibitory concentration (MIC), CLSI broth micro-dilution, E. coli. It counts as cell-based. The settings on record: Escherichia coli, ATCC25922, 22 h. In a few lines:
(§1)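 Antibacterial potency is measured as MIC by the CLSI broth dilution method. Bacteria at OD600 0.0005 in Tween-80-supplemented cation-adjusted Mueller Hinton broth face ten twofold compound dilutions for 22 h at 35° C.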

For experiment [2], the system named is Methicillin Resistant Staphylococcus aureus strain USA 200. Put plainly: Minimum inhibitory concentration (MIC), CLSI broth micro-dilution, S. aureus. In kind it is cell-based. The settings on record: Staphylococcus aureus, MRSA / USA200, MRSA USA 200, cation adjusted Mueller Hinton Broth + 0.002% Tween-80, 35° C., 22 hours. In a few lines:
as §1

The mark [3] stands for this setting: Table 6, cation adjusted Mueller Hinton Broth + 0.002% Tween-80, 35° C.

Take `CCCCCCCc1ccc(C(=O)N[C@@H](CCN)C(=O)N(C)[C@@H]2C(=O)N[C@@H](C)C(=O)N[C@H](C(=O)NCC#N)Cc3ccc(OCCN)c(c3)-c3cc2ccc3OCCN)c(OCC(=O)O)c1` (racemic) [Compound 379, 2-[5-heptyl-2-[[rac-(1S)-3-amino-1-[methyl-[rac-(7S,10S,13S)-3,18-bis(2-aminoethoxy)-13-(cyanomethylcarbamoyl)-10-methyl-8,11-dioxo-9,12-diazatricyclo[13.3.1.12,6]icosa-1(19),2,4,6(20),15,17-hexaen-7-yl]carbamoyl]propyl]carbamoyl]phenoxy]acetic acid]: the MIC in experiment [1] (setting [3]) amounted to 1 µM; in experiment [2] (Table 6), 0.26 µM.

As to `Cc1nc(-c2ccc(OC(C)C)cc2)nc(C)c1C(=O)N[C@@H](CCN)C(=O)N(C)[C@@H]1C(=O)N[C@@H](C)C(=O)N[C@H](C(=O)O)Cc2ccc(O)c(c2)-c2cc1ccc2OCCN` (racemic) [Compound 643, rac-(8S,11S,14S)-18-(2-aminoethoxy)-3-hydroxy-11-methyl-14-[methyl-[rac-(2S)-4-amino-2-[[2-(4-isopropoxyphenyl)-4,6-dimethyl-pyrimidine-5-carbonyl]amino]butanoyl]amino]-10,13-dioxo-9,12-diazatricyclo [13.3.1.12,6]icosa-1(18),2(20),3,5,15(19), 16-hexaene-8-carboxylic acid], the MIC in experiment [1] (Table 8, cation adjusted Mueller Hinton Broth + 0.002% Tween-80, 35° C.) was 2.3 µM; in experiment [2] (Table 8), 1.1 µM.

Turning to `Cc1nc(C#Cc2ccccc2)nc(C)c1C(=O)N[C@@H](CCN)C(=O)N(C)[C@@H]1C(=O)N[C@@H](C)C(=O)N[C@H](C(=O)NCC#N)Cc2ccc(OCCN)c(c2)-c2cc1ccc2OCCN` (racemic) [Compound 309, rac-(8S,11S,14S)-3,18-bis(2-aminoethoxy)-N-(cyanomethyl)-11-methyl-14-[methyl-[rac-(2S)-4-amino-2-[[4,6-dimethyl-2-(2-phenylethynyl)pyrimidine-5-carbonyl]amino]butanoyl]amino]-10,13-dioxo-9,12-diazatricyclo[13.3.1.12,6]icosa-1(18),2(20),3,5,15(19),16-hexaene-8-carboxamide], the MIC was 1.1 µM in experiment [1] (setting [3]) and 0.27 µM in experiment [2] (Table 6).

Take `CCCCCCCc1ccc(C(=O)N[C@@H](CCN)C(=O)N(C)[C@@H]2C(=O)N[C@@H](C3CC3)C(=O)N[C@H](C(=O)NCC#N)Cc3ccc(OCCN)c(c3)-c3cc2ccc3OCCN)c(C)c1` (racemic) [Compound 478, rac-(8S,11S,14S)-3,18-bis(2-aminoethoxy)-N-(cyanomethyl)-11-cyclopropyl-14-[methyl-[rac-(2S)-4-amino-2-[(4-heptyl-2-methyl-benzoyl)amino]butanoyl]amino]-10,13-dioxo-9,12-diazatricyclo[13.3.1.12,6]icosa-1(18),2(20),3,5,15(19),16-hexaene-8-carboxamide]: the results for the MIC in experiment [1] (setting [3]) and in experiment [2] (Table 6) were 1.1 µM and 0.071 µM, respectively.

`Cc1cc(-c2ccc(C(C)(C)C)cc2F)nc(C)c1C(=O)N[C@@H](CCN)C(=O)N(C)[C@@H]1C(=O)N[C@@H](C)C(=O)N[C@H](C(=O)NCC#N)Cc2ccc(OCCN)c(c2)-c2cc1ccc2OCCN` (racemic) [Compound 363, rac-(8S,11S,14S)-3,18-bis(2-aminoethoxy)-N-(cyanomethyl)-11-methyl-14-[methyl-[rac-(2S)-4-amino-2-[[6-(4-tert-butyl-2-fluoro-phenyl)-2,4-dimethyl-pyridine-3-carbonyl]amino]butanoyl]amino]-10,13-dioxo-9,12-diazatricyclo[13.3.1.12,6]icosa-1(18),2(20),3,5,15(19),16-hexaene-8-carboxamide]: the minimum inhibitory concentration (MIC) turned out to be 0.19 µM in experiment [1] (setting [3]) and 0.016 µM in experiment [2] (Table 6).

`CCCCCCCCc1ccc(C(=O)N[C@@H](CCC(=O)N(C)C)C(=O)N(C)[C@@H]2C(=O)N[C@@H](C)C(=O)N[C@H](C(=O)NCC#N)Cc3ccc(OCCN)c(c3)-c3cc2ccc3OCCN)c(C)c1` (racemic) [Compound 444, rac-(2S)-N,N′,N′-trimethyl-2-[(2-methyl-4-octyl-benzoyl)amino]-N-[rac-(7S,10S,13S)-3,18-bis(2-aminoethoxy)-13-(cyanomethylcarbamoyl)-10-methyl-8,11-dioxo-9,12-diazatricyclo[13.3.1.12,6]icosa-1(19),2,4,6(20),15,17-hexaen-7-yl]pentanediamide]: the MIC stood at 4.1 µM in experiment [1] (setting [3]) and 0.064 µM in experiment [2] (Table 6).

With `Cc1nc(-c2ccc(OC(C)C)cc2)nc(C)c1C(=O)N[C@@H](CCN)C(=O)N(C)[C@@H]1C(=O)N[C@@H](C)C(=O)N[C@H](C(=O)NCC#N)Cc2ccc(O)c(c2)-c2cc1ccc2OCCN` (racemic) [Compound 552, rac-(8S,11S,14S)-18-(2-aminoethoxy)-N-(cyanomethyl)-3-hydroxy-11-methyl-14-[methyl-[rac-(2S)-4-amino-2-[[2-(4-isopropoxyphenyl)-4,6-dimethyl-pyrimidine-5-carbonyl]amino]butanoyl]amino]-10,13-dioxo-9,12-diazatricyclo[13.3.1.12,6]icosa-1(18),2(20),3,5,15(19),16-hexaene-8-carboxamide], the MIC came out at 1.4 µM in experiment [1] (setting [3]) and 0.25 µM in experiment [2] (Table 6).

Turning to `CCC(C)(C)c1ccc(-c2nc(C)c(C(=O)N[C@@H](CCN)C(=O)N(C)[C@@H]3C(=O)N[C@@H](C)C(=O)N[C@H](C(=O)NCC#N)Cc4ccc(OCCN)c(c4)-c4cc3ccc4OCCN)c(C)n2)cc1` (racemic) [Compound 261, rac-(8S,11S,14S)-3,18-bis(2-aminoethoxy)-N-(cyanomethyl)-11-methyl-14-[methyl-[rac-(2S)-4-amino-2-[[2-[4-(1,1-dimethylpropyl)phenyl]-4,6-dimethyl-pyrimidine-5-carbonyl]amino]butanoyl]amino]-10,13-dioxo-9,12-diazatricyclo[13.3.1.12,6]icosa-1(18),2(20),3,5,15(19),16-hexaene-8-carboxamide], the MIC stood at 0.1 µM in experiment [1] (setting [3]) and 0.014 µM in experiment [2] (Table 6).

For `CCCCc1ccc(Oc2ccc(C(=O)N[C@@H](CCN)C(=O)N(C)[C@@H]3C(=O)N[C@@H](C)C(=O)N[C@H](C(=O)NCC#N)Cc4ccc(OCCN)c(c4)-c4cc3ccc4OCCN)c(Cl)c2)cc1CCCC` (racemic) [Compound 378, rac-(8S,11S,14S)-3,18-bis(2-aminoethoxy)-N-(cyanomethyl)-11-methyl-14-[methyl-[rac-(2S)-4-amino-2-[[2-chloro-4-(3,4-dibutylphenoxy)benzoyl]amino]butanoyl]amino]-10,13-dioxo-9,12-diazatricyclo[13.3.1.12,6]icosa-1(18),2(20),3,5,15(19),16-hexaene-8-carboxamide], the MIC was found to be 0.38 µM in experiment [1] (setting [3]) and 0.031 µM in experiment [2] (Table 6).

Turning to `CCc1ccc(-c2nc(C)c(C(=O)N[C@@H](CCN)C(=O)N(C)[C@@H]3C(=O)N[C@@H](C)C(=O)N[C@H](C(=O)NCC#N)Cc4ccc(O)c(c4)-c4cc3ccc4OCCN)c(C)n2)cc1` (racemic) [Compound 516, rac-(8S,11S,14S)-18-(2-aminoethoxy)-N-(cyanomethyl)-3-hydroxy-11-methyl-14-[methyl-[rac-(2S)-4-amino-2-[[2-(4-ethylphenyl)-4,6-dimethyl-pyrimidine-5-carbonyl]amino]butanoyl]amino]-10,13-dioxo-9,12-diazatricyclo[13.3.1.12,6]icosa-1(18),2(20),3,5,15(19),16-hexaene-8-carboxamide], the results for the MIC in experiment [1] (setting [3]) and in experiment [2] (Table 6) were 2 µM and 0.19 µM, respectively.

In the case of `Cc1nc(-c2ccc(C3(C(F)(F)F)CC3)cc2)ncc1C(=O)N[C@@H](CCN)C(=O)N(C)[C@@H]1C(=O)N[C@@H](C)C(=O)N[C@H](C(=O)NCC#N)Cc2ccc(OCCN)c(c2)-c2cc1ccc2OCCN` (racemic) [Compound 219, rac-(8S,11S,14S)-3,18-bis(2-aminoethoxy)-N-(cyanomethyl)-11-methyl-14-[methyl-[rac-(2S)-4-amino-2-[[4-methyl-2-[4-[1-(trifluoromethyl)cyclopropyl]phenyl]pyrimidine-5-carbonyl]amino]butanoyl]amino]-10,13-dioxo-9,12-diazatricyclo[13.3.1.12,6]icosa-1(18),2(20),3,5,15(19),16-hexaene-8-carboxamide], the MIC in experiment [1] (setting [3]) was 0.13 µM; in experiment [2] (Table 6), 0.012 µM.

Consider `COc1cc(C(=O)N[C@@H](CCN)C(=O)N(C)[C@@H]2C(=O)N[C@@H](C)C(=O)N[C@H](C(=O)NCC#N)Cc3ccc(OCCN)c(c3)-c3cc2ccc3OCCN)c(C)nc1-c1ccc(C(C)(C)C)cc1` (racemic) [Compound 403, rac-(8S,11S,14S)-3,18-bis(2-aminoethoxy)-N-(cyanomethyl)-11-methyl-14-[methyl-[rac-(2S)-4-amino-2-[[6-(4-tert-butylphenyl)-5-methoxy-2-methyl-pyridine-3-carbonyl]amino]butanoyl]amino]-10,13-dioxo-9,12-diazatricyclo[13.3.1.12,6]icosa-1(18),2(20),3,5,15(19),16-hexaene-8-carboxamide], for which the figures for the minimum inhibitory concentration (MIC) in experiment [1] (setting [3]) and in experiment [2] (Table 6) were 0.5 µM and 0.016 µM, respectively.

For the compound `Cc1nc(-c2ccc3c(c2)CCCC3)nc(C)c1C(=O)N[C@@H](CCN)C(=O)N(C)[C@@H]1C(=O)N[C@@H](C)C(=O)N[C@H](C(=O)NCC#N)Cc2ccc(OCCN)c(c2)-c2cc1ccc2OCCN` (racemic) [Compound 259, rac-(8S,11S,14S)-3,18-bis(2-aminoethoxy)-N-(cyanomethyl)-11-methyl-14-[methyl-[rac-(2S)-4-amino-2-[(4,6-dimethyl-2-tetralin-6-yl-pyrimidine-5-carbonyl)amino]butanoyl]amino]-10,13-dioxo-9,12-diazatricyclo[13.3.1.12,6]icosa-1(18),2(20),3,5,15(19),16-hexaene-8-carboxamide], the results for the MIC in experiment [1] (setting [3]) and in experiment [2] (Table 6) were 0.26 µM and 0.025 µM, respectively.
